Results on 3 compounds are retold here after DBAASP.

≈ marks a conversion by molar mass, not a printed value.

Among the test systems are Escherichia coli O111; Escherichia coli O157:H7; Escherichia coli MG1655.
What all share (experiment): ≥ marks a high value that may be exact or a test limit, other limits are often not marked, values filed in µg/mL are converted to µM
In test [1] the test system is Cronobacter muytjensii ATCC 51329.
In test [2] the test system is Cronobacter sakazakii ATCC BAA-894.
The subject of test [3] is Cronobacter sakazakii DPC 6440.
Test [4] deals with Cronobacter sakazakii DSM 4485.
Test [5] deals with Escherichia coli NCIMB 11843.
Test [6] concerns Klebsiella pneumoniae NCIMB 13218.
Test [7] relates to Listeria monocytogenes NCTC 11994.
Test [8] concerns Pseudomonas fluorescens NCIMB 9046.
The subject of test [9] is Pseudomonas putida ATCC 49128.
Test [10] relates to Salmonella enterica subsp. enterica serovar Typhimurium DT104.
The subject of test [11] is Salmonella enterica subsp. enterica serovar Typhimurium LT2.
The test system of test [12] is Staphylococcus aureus NCTC 7428.
Test [13] concerns Staphylococcus aureus NCTC 8325-4.
Test [14] deals with Staphylococcus aureus Newman.
Test [15] relates to Staphylococcus aureus RF122.
Test [16] has as its system Staphylococcus aureus RN4220.
For test [17], the system named is Staphylococcus aureus SA113.
For test [18], the system named is Pseudomonas aeruginosa PA7.
The test system of test [19] is Pseudomonas aeruginosa PAO1.
The subject of test [20] is Staphylococcus aureus NCTC 8325.
Test [21] has as its system Acinetobacter baumannii NM109.
Test [22] relates to Acinetobacter baumannii NM124.
The subject of test [23] is Acinetobacter baumannii NM35.
Test [24] has as its system Acinetobacter baumannii NM75.
Test [25] relates to Acinetobacter baumannii NM8.
In test [26] the test system is Candida albicans ATCC 90028.
Test [27] deals with Enterococcus faecalis ATCC 29212.
The subject of test [28] is Escherichia coli ATCC 25726.
For test [29], the system named is Klebsiella pneumoniae ATCC 700603.
For test [30], the system named is Pseudomonas aeruginosa ATCC 27853.
In test [31] the test system is Staphylococcus aureus 145/08.
Test [32] has as its system Staphylococcus aureus ATCC 25923.
The subject of test [33] is Staphylococcus epidermidis RP62A/1.
The subject of test [34] is Staphylococcus epidermidis RP62A.
For test [35], the system named is Staphylococcus epidermidis T37/8.
Test [36] relates to Staphylococcus epidermidis T6/19.
Test [37] relates to Stenotrophomonas maltophilia B32/1.
The test system of test [38] is Stenotrophomonas maltophilia B32/4.
Test [39] deals with Stenotrophomonas maltophilia B5/5.
Test [40] deals with Stenotrophomonas maltophilia B6/2.
In test [41] the test system is Stenotrophomonas maltophilia U8908.

For `CC[C@H](C)[C@H](N)C(=O)N[C@@H](CCCCN)C(=O)N[C@@H](Cc1cnc[nH]1)C(=O)N[C@@H](CCC(N)=O)C(=O)NCC(=O)N[C@@H](CC(C)C)C(=O)N1CCC[C@H]1C(=O)N[C@@H](CCC(N)=O)C(=O)N[C@@H](CCC(=O)O)C(=O)O` [IKHQGLPQE], the minimal inhibitory concentration (MIC) is not below 625 µM in [1]; not below 625 µM in test [2]; not below 625 µM in test [3]; not below 625 µM in test [4]; not below 1250 µM in [5]; not below 1910 µM against Escherichia coli O111. For the same compound, the MIC against Escherichia coli O157:H7 was not below 1910 µM; in [6], not below 1250 µM; in test [7] it was not below 953 µM; in test [8], not below 1250 µM; in [9] it was not below 953 µM; in [10] it was not below 1910 µM. Further, the minimum inhibitory concentration (MIC) in test [11] is not below 1250 µM; in [12] it was not below 1910 µM; in test [13] it was not below 1250 µM; in [14] it was not below 1250 µM; in test [15] it was not below 1250 µM; in [16], not below 1250 µM. For the same compound, in [17], the MIC is not below 1250 µM.
Turning to `CC[C@H](C)[C@H](NC(=O)[C@@H](N)CCCCN)C(=O)N1CCC[C@H]1C(=O)N1CCC[C@H]1C(=O)N[C@H](C(=O)N[C@H](C(=O)N[C@@H](CCCCN)C(=O)N[C@@H](CC(=O)O)C(=O)N[C@H](C(=O)N[C@@H](CC(C)C)C(=O)N[C@@H](CCCCN)C(=O)N[C@@H](CCCCN)C(=O)N[C@H](C(=O)N[C@@H](C)C(=O)N[C@@H](CCCCN)C(=O)NCC(=O)N[C@H](C(=O)N[C@@H](CC(C)C)C(=O)N[C@@H](CO)C(=O)N[C@@H](C)C(=O)N[C@H](C(=O)N[C@@H](C)C(=O)NCC(=O)N[C@@H](C)C(=O)N[C@@H](CC(C)C)C(=O)N[C@@H](CO)C(=O)O)C(C)C)C(C)C)C(C)C)[C@@H](C)O)C(C)C)C(C)C` [KIPPVVKDTLKKVAKGVLSAVAGALS], the minimum inhibitory concentration (MIC) was 2 µM (≈ 5.18 µg/mL) against Escherichia coli MG1655, 16 µM (≈ 41.4 µg/mL) in [18], 16 µM (≈ 41.4 µg/mL) in [19] and not below 181 µM in test [20].
`CC[C@H](C)[C@H](NC(=O)[C@H](C)NC(=O)[C@@H](NC(=O)[C@H](C)NC(=O)CNC(=O)[C@H](CCCCN)NC(=O)[C@@H](NC(=O)[C@H](C)NC(=O)CNC(=O)[C@H](CCCCN)NC(=O)[C@H](CC(C)C)NC(=O)[C@@H](NC(=O)[C@H](CCCCN)NC(=O)[C@H](CCCCN)NC(=O)[C@H](CC(C)C)NC(=O)[C@@H](NC(=O)[C@H](CCCCN)NC(=O)[C@H](CCCCN)NC(=O)[C@@H](NC(=O)[C@H](CCCCN)NC(=O)[C@@H]1CCCN1C(=O)[C@H](CO)NC(=O)[C@H](CC(C)C)NC(=O)[C@H](CCCCN)NC(=O)[C@@H](N)CC(C)C)[C@@H](C)O)[C@@H](C)O)C(C)C)[C@@H](C)CC)[C@@H](C)CC)C(=O)N[C@@H](C)C(=O)N[C@@H](CO)C(=O)N[C@@H](CCSC)C(=O)N[C@@H](C)C(=O)O` [LKLSPKTKKTLKKVLKGAIKGAIAIASMA]: the MIC in test [21] was 5 µM (≈ 15 µg/mL); in [22], 2.5 µM (≈ 7.52 µg/mL); in test [23], 2.5 µM (≈ 7.52 µg/mL); in test [24], 2.5 µM (≈ 7.52 µg/mL); in test [25] it was 2.5 µM (≈ 7.52 µg/mL); in [26], not below 80 µM. Moreover, the MIC in [27] came to 5 µM (≈ 15 µg/mL); in test [28], 2.5 µM (≈ 7.52 µg/mL); in test [29], 5 µM (≈ 15 µg/mL); in [30], 10 µM (≈ 30.1 µg/mL); in [31], 2.5 µM (≈ 7.52 µg/mL); in test [32], 2.5 µM (≈ 7.52 µg/mL). The minimum inhibitory concentration (MIC) in [33] came to 1.25 µM (≈ 3.76 µg/mL); in [34], 1.25 µM (≈ 3.76 µg/mL); in test [35] it was 1.25 µM (≈ 3.76 µg/mL); in [36], 1.25 µM (≈ 3.76 µg/mL); in test [37] it was 2.5 µM (≈ 7.52 µg/mL); in test [38], 1.25 µM (≈ 3.76 µg/mL). In addition, the MIC is 2.5 µM (≈ 7.52 µg/mL) in test [39], 1.25 µM (≈ 3.76 µg/mL) in test [40] and 2.5 µM (≈ 7.52 µg/mL) in test [41].

The term MIC denotes the least concentration at which growth counts as inhibited. Low values mean a more susceptible organism, high ones a less susceptible organism.
